Experimental data: patent publication US20080221193A1, “3-AMINO CHROMANE DERIVATIVES” (Wyeth, priority 2006, published 2008)

Tests used:
human 5-HT1A receptors [1] = target: T1, human 5-HT1A receptors (Homo sapiens, UniProt P08908); assay: 8-OH-DPAT binding in CHO cells stably transfected with human 5HT1a receptor; conditions: displacement of [3H]8-OH-DPAT, CHO cells with human 5-HT1A; read-out: 5-HT1A Receptor Affinity Ki
T1 construct: expressed in transfected cells; host or cells: CHO cells, stably transfected
T1 sequence (P08908 1-422): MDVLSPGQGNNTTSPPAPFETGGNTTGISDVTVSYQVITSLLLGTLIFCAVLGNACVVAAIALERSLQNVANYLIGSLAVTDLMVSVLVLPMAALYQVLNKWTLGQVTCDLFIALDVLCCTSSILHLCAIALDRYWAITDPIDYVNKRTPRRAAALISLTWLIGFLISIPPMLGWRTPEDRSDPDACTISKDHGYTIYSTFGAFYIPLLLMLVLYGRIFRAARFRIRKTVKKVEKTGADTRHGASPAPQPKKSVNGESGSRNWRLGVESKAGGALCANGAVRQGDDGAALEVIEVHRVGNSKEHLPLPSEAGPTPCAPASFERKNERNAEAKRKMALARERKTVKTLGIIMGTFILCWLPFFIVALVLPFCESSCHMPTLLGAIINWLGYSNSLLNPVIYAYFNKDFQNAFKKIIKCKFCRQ
Protocol: High affinity for the serotonin 5-HT1A receptor was established by testing the claimed compound's ability to displace [^3H] 8-OH-DPAT (dipropylaminotetralin) from the 5-HT1A serotonin receptor following a modification of the procedure of Hall et al., (J. Neurochem., 1985, 44: 1685) which utilizes CHO cells stably transfected with human 5-HT1A receptors.
Stabily transfected CHO cells were grown in DMEM containing 10% heat inactivated FBS and non-essential amino acids. Cells were scraped off the plate, transferred to centrifuge tubes, and washed twice by centrifugation (2000 rpm for 10 min., 4° C.) in buffer (50 mM Tris pH 7.5). The resulting pellets were aliquoted and placed at −80° C. On day of assay, the cells were thawed on ice, and resuspended in buffer. The binding assay was performed in a 96 well microtiter plate in a total volume of […].
Non-specific binding was determined in the presence of […] 5HT, final ligand concentration is 1.5 nM. Following a 30 minute incubation at room temperature, the reaction was terminated by the addition of ice cold buffer and rapid filtration through a GF/B filter presoaked for 30 minutes in 0.5% PEI. Compounds were initially tested in a single point assay to determine percent inhibition at […]. Subsequently, Ki values were determined for compounds defined to be active.

h5-HT Transporter = h5-HT Transporter (Homo sapiens, UniProt P31645); assay: h5-HT Transporter Function (Table 1); assay type: biochemical
Chain of h5-HT Transporter (P31645 whole entry): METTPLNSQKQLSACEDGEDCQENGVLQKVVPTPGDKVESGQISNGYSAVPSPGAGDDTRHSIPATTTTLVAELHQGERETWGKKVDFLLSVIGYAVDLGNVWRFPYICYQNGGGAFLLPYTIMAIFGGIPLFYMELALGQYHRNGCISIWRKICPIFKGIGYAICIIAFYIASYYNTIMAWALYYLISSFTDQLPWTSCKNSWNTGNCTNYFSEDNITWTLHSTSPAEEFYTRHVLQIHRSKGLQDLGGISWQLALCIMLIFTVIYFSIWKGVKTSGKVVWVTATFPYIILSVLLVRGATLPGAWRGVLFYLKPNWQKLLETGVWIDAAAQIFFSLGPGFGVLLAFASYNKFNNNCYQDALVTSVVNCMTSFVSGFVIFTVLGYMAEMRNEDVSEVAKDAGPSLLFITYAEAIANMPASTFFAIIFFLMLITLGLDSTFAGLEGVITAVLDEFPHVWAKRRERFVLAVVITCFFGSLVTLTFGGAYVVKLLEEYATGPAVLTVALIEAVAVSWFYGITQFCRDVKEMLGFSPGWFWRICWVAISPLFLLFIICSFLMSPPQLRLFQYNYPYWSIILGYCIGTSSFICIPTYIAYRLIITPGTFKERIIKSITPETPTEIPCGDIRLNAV

human 5-HT1A receptors [2] = target: T1, human 5-HT1A receptors; assay: 35S-GTPγS binding assay, membranes containing cloned human 5-HT1A receptors; assay type: biochemical; conditions: read-out: 5-HT1A Function GTPγS IC50
Text: (§1) The agonist or antagonist activity at 5-HT1A receptors was established by using two different assays. The ^35S-GTPγS binding assay similar to that used by Lazareno and Birdsall (Br. J. Pharmacol., 1993, 109: 1120) was used to determine the test compound's ability to affect the binding of ^35S-GTPγS to membranes containing cloned human 5-HT1A receptors. Agonists produce an increase in binding whereas antagonists produce no increase but rather reverse the effects of the standard agonist 8-OH-DPAT. The test compound's maximum stimulatory effect is represented as the Emax, while its potency is defined by the EC50. The test compound's maximum inhibitory effect is represented as the Imax, while its potency is defined by the IC50. The second assay measured cAMP accumulation upon binding of the ligand to the 5-HT1A receptor. Antagonists block the effect of the standard agonist 8-OH-DPAT resulting in an increase in cAMP accumulation while agonists have the reverse effect. The test compound's maximum stimulatory or inhibitory effect is represented as the Emax while its potency is defined by either IC50 for an antagonist or EC50 for an agonist. [^3H]-8-OH-DPAT was used to determine maximum agonist or antagonist response in both functional assays.

h5HT1a receptor = target: T2, h5HT1a receptor (Homo sapiens, UniProt P08908); assay: cAMP RIA in CHO cells stably transfected with the h5HT1a receptor; assay type: cell-based; conditions: for EC50: agonist, forskolin-stimulated cAMP, read-out: 5-HT1A Function cAMP EC50; for IC50: antagonist, reversal of agonist 8-OH-DPAT, read-out: 5-HT1A Function cAMP IC50
T2 construct: expressed in transfected cells; host or cells: CHO cells, stably transfected
T2 sequence (P08908 1-422): T1 sequence (P08908 1-422)
Text: as §1
Stabily transfected CHO cells were grown in DMEM containing 10% heat inactivated FBS and non-essential amino acids. The cells were plated at a density of 10(6) cells per well in a 24 well plate and incubated for 2 days in a CO2 incubator. On the second day, the media was replaced with 0.5 ml treatment buffer (DMEM+25 mM HEPES, 5 mM theophylline, 10 uM pargyline) and incubated 10 minutes at 37° C.
Wells were treated with forskolin (1 μM final conc) followed immediately by test compound (0.1 and 1 uM for initial screen) and incubated for an additional 10 min at 37° C. The reaction was terminated by removal of the media and addition of 0.5 ml ice cold assay buffer (supplied in RIA kit). Plates were stored at −20° C. prior to assessment of cAMP formation by RIA.
Compounds shown to have no agonist activities were further analyzed for ability to reverse agonist activity. In separate experiments, 6 concentrations of antagonist were preincubated for 20 minutes prior to the addition of agonist and forskolin. Cells were harvested as described. The cAMP kit was supplied by Amersham and the RIA was performed as per kit instructions.

CNC(=O)c1ccc(OC)c2c1C[C@@H](N(CCCc1c[nH]c3ccc(F)cc13)C1CCC1)CO2 [Example 16, (3R)-3-{cyclobutyl[3-(5-fluoro-1H-indol-3-yl)propyl]amino}-8-methoxychromane-5-methylcarboxamide]
Ki (human 5-HT1A receptors [1]): 570 nM
IC50 (h5-HT Transporter): 55 nM
IC50 (human 5-HT1A receptors [2]): 738 nM
EC50 (h5HT1a receptor): 323 nM

Cc1ccc(C(N)=O)c2c1OC[C@H](N(CCCc1c[nH]c3ccc(F)cc13)C1CCC1)C2 [Example 20, (3R)-3-{cyclobutyl[3-(5-fluoro-1H-indol-3-yl)propyl]amino}-8-methylchromane-5-carboxamide]
Ki (human 5-HT1A receptors [1]): 4.26 nM
IC50 (h5-HT Transporter): 52.2 nM
IC50 (human 5-HT1A receptors [2]): 311 nM
EC50 (h5HT1a receptor): 51.8 nM

CCc1ccc(C(N)=O)c2c1OC[C@H](N(CCCc1c[nH]c3ccc(F)cc13)C1CCC1)C2 [Example 21, (3R)-3-{cyclobutyl[3-(5-fluoro-1H-indol-3-yl)propyl]amino}-8-ethylchromane-5-carboxamide]
Ki (human 5-HT1A receptors [1]): 5.93 nM
IC50 (h5-HT Transporter): 90.4 nM
IC50 (human 5-HT1A receptors [2]): 724 nM
EC50 (h5HT1a receptor): 15.6 nM

CSc1ccc(C(N)=O)c2c1OC[C@H](N(CCCc1c[nH]c3ccc(F)cc13)C1CCC1)C2 [Example 22, (3R)-3-{cyclobutyl[3-(5-fluoro-1H-indol-3-yl)propyl]amino}-8-(methylthio)chromane-5-carboxamide]
Ki (human 5-HT1A receptors [1]): 16.9 nM
IC50 (h5-HT Transporter): 364 nM
IC50 (human 5-HT1A receptors [2]): 1180 nM
IC50 (h5HT1a receptor): 59.8 nM

CNc1ccc(C(N)=O)c2c1OC[C@H](N(CCCc1c[nH]c3ccc(F)cc13)C1CCC1)C2 [Example 25, (3R)-3-{cyclobutyl[3-(5-fluoro-1H-indol-3-yl)propyl]amino}-8-(methylamino)-chromane-5-carboxamide]
Ki (human 5-HT1A receptors [1]): 51.5 nM
IC50 (h5-HT Transporter): 137 nM
IC50 (human 5-HT1A receptors [2]): 3550 nM
IC50 (h5HT1a receptor): 140 nM
